Experimental findings from patent US9682141B2, “Combination of kinase inhibitors and uses thereof” (INTELLIKINE LLC, priority 2011, dated 2017) are described below.

Bounds are passed on as bounds.

What all share (format): biochemical
The target in one assay is PI3K α (Homo sapiens (Human), UniProt P42336). The experiment in a line: PI 3-Kinase (human) HTRF assay, p110α/p85α. A general note: In TR-FRET formats the signal depends on donor and acceptor labels being close together.
For the next assay, the target named is PI3K β (Homo sapiens (Human), UniProt P42338). The experiment in a line: PI 3-Kinase (human) HTRF assay, p110β/p85α.
For the next assay, the target named is PI3K δ (Homo sapiens (Human), UniProt O00329). The experiment in a line: PI 3-Kinase (human) HTRF assay, p110δ/p85α.
A further assay has as its target PI3K γ (Homo sapiens (Human), UniProt P48736). The experiment in a line: PI 3-Kinase (human) HTRF assay, p110γ. To be noted: read-out: PI3K γ IC50.

PI3K δ, sequence (O00329 whole entry): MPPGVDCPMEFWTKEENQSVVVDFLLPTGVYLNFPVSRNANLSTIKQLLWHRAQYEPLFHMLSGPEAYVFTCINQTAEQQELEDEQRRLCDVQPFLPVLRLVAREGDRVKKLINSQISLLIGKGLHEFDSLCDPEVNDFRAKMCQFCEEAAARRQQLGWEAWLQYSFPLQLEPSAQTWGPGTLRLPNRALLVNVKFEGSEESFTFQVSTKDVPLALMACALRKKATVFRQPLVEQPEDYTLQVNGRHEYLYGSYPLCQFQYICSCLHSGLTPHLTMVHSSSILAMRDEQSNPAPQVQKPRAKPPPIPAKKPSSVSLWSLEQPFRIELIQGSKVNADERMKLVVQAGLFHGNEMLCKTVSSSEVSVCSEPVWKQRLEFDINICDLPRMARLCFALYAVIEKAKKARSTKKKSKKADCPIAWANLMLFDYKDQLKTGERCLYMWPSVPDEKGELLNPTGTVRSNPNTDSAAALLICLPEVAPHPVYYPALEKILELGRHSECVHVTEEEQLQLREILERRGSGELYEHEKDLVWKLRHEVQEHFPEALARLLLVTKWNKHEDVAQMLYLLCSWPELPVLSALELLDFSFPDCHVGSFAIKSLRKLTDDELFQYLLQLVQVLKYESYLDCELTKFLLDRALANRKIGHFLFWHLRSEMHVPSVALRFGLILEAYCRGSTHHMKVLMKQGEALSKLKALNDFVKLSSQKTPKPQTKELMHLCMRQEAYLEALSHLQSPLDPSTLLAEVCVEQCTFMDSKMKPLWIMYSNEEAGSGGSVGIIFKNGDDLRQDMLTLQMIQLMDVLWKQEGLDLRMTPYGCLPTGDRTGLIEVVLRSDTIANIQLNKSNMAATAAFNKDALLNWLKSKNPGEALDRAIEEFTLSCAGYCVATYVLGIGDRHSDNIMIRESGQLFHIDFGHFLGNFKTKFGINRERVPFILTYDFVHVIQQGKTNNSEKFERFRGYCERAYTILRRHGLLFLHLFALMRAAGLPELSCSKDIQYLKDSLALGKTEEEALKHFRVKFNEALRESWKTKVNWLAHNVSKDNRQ
PI3K δ, sequence (P27986 whole entry partner): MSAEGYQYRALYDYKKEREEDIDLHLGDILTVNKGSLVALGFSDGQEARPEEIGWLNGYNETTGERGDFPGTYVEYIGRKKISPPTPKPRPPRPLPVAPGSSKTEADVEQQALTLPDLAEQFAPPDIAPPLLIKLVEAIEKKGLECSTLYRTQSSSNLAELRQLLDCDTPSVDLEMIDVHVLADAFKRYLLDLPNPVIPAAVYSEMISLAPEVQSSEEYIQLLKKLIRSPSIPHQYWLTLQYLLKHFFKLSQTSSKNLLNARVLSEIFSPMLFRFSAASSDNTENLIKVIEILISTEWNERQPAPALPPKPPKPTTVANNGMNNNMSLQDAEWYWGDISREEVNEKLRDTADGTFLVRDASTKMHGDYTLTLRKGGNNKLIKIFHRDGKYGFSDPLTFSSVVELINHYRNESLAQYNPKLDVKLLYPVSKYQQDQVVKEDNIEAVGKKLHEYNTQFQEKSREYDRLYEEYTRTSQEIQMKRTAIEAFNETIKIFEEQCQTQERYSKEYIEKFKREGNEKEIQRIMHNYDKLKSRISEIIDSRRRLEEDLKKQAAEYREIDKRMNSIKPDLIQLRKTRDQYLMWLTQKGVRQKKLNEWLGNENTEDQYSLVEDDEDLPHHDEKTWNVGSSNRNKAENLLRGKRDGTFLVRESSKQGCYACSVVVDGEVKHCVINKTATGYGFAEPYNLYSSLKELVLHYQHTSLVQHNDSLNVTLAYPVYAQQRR
PI3K α, sequence (P42336 whole entry): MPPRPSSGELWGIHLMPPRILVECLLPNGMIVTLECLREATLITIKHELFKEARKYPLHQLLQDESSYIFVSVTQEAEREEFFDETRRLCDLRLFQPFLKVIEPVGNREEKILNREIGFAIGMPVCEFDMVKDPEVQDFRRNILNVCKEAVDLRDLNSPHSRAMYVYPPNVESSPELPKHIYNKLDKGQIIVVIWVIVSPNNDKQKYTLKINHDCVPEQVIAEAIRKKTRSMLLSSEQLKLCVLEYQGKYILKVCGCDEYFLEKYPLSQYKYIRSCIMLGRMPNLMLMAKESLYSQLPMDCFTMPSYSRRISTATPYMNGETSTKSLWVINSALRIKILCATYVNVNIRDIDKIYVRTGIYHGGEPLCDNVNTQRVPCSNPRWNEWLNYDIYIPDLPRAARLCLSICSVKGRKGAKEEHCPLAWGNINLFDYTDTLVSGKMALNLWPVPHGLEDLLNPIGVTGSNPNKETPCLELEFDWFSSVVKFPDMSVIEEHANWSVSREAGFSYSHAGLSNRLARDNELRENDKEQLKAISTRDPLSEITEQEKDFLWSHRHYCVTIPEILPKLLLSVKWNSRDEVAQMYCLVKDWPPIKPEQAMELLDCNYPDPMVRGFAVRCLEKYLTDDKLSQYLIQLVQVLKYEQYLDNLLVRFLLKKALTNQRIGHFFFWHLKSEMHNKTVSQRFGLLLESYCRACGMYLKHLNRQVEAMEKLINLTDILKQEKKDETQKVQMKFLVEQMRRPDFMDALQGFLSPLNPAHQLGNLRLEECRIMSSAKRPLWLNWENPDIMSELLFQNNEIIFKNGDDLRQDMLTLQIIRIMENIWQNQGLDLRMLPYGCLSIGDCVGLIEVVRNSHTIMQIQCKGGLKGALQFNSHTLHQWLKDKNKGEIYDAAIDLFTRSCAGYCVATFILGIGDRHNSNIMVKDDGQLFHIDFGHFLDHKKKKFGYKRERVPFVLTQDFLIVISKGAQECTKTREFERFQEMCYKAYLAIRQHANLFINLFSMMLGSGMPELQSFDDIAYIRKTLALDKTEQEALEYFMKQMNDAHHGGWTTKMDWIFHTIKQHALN
PI3K α, sequence (P27986 whole entry partner): as the sequence (P27986 whole entry partner) above
PI3K β, sequence (P42338 whole entry): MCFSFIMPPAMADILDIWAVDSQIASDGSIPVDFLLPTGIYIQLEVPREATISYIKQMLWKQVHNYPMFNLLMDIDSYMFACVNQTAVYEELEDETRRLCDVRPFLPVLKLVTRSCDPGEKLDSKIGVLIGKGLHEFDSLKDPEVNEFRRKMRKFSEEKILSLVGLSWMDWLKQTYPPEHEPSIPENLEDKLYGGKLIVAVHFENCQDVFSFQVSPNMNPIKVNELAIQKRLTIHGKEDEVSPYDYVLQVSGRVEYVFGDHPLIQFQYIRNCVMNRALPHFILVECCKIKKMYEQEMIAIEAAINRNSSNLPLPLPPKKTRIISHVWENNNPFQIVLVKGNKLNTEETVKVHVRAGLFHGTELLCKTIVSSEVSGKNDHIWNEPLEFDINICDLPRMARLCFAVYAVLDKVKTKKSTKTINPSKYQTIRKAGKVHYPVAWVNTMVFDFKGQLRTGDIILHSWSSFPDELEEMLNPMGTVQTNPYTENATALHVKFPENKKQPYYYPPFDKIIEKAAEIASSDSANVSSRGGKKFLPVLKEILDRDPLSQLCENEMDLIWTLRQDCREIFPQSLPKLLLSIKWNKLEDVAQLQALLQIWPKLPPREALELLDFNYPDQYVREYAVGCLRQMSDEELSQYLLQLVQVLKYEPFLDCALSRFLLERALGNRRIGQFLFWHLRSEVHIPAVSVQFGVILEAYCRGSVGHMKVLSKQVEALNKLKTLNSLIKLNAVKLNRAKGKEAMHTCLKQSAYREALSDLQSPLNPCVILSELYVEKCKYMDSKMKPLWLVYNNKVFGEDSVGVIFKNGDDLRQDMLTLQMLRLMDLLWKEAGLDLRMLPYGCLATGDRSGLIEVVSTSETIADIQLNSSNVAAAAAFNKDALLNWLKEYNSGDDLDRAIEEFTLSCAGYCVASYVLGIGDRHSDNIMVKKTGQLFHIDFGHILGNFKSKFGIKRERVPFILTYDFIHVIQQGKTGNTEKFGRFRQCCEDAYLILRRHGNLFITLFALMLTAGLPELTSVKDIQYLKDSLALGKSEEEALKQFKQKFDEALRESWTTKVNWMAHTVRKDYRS
PI3K β, sequence (P27986 whole entry partner): as the sequence (P27986 whole entry partner) above
PI3K γ, sequence (P48736 whole entry): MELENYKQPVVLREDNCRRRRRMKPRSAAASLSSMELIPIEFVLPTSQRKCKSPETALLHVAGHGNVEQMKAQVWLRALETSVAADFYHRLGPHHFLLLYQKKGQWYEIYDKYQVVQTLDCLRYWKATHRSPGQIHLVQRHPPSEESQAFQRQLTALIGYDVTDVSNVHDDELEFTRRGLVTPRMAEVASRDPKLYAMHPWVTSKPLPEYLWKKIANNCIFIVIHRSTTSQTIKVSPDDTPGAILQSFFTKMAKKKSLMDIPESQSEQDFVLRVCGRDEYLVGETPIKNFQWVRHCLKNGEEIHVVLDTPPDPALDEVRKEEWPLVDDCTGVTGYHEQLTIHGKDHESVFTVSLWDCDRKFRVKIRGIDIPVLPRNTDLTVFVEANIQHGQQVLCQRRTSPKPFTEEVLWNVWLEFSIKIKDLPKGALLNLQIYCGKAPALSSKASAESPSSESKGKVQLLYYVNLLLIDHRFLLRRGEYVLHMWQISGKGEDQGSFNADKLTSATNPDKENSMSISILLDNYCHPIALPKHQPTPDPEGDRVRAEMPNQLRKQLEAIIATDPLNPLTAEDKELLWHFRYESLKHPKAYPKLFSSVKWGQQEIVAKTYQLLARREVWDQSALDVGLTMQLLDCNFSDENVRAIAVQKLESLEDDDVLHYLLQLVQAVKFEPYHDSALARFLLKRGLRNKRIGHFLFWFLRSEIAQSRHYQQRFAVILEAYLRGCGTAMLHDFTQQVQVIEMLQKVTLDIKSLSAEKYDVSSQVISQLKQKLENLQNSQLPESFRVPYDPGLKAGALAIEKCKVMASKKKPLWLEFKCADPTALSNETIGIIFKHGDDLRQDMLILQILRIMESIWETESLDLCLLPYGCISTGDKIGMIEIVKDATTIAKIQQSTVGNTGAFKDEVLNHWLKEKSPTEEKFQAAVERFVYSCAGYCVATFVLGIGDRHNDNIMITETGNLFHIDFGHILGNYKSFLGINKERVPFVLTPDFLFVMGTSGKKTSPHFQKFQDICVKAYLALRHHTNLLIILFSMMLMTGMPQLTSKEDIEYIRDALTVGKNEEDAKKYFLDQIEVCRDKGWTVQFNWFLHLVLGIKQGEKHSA
Experimental for PI3K δ: An exemplary system is PI 3-Kinase (human) HTRF™ Assay from Upstate. […] Briefly, the assay is a time resolved FRET assay that indirectly measures PIP3 product formed by the activity of a PI3-K. The kinase reaction is performed in a microtitre plate (e.g., a 384 well microtitre plate). The total reaction volume is approximately 20 ul per well. In the first step, each well receives 2 ul of test compound in 20% dimethylsulphoxide resulting in a 2% DMSO final concentration. Next, approximately 14.5 ul of a kinase/PIP2 mixture (diluted in 1× reaction buffer) is added per well for a final concentration of 0.25-0.3 ug/ml kinase and 10 μM PIP2. The plate is sealed and incubated for 15 minutes at room temperature. To start the reaction, 3.5 ul of ATP (diluted in 1× reaction buffer) is added per well for a final concentration of 10 μM ATP. The plate is sealed and incubated for 1 hour at room temperature. The reaction is stopped by adding 5 ul of Stop Solution per well and then 5 ul of Detection Mix is added per well. The plate is sealed, incubated for 1 hour at room temperature, and then read on an appropriate plate reader. Data is analyzed and IC50s are generated using GraphPad Prism 5. For PI3K α, β, δ, and γ, the nM concentration of inhibitor to reach IC50 is provided.

Consider `Nc1nc2cc(-c3ccc4ncc(-c5ccnc(N6CCOCC6)c5)nc4c3)ccc2o1`, for which the IC50 is below 1 µM on PI3K α, above 10 µM at PI3K β, above 10 µM against PI3K δ and above 10 µM at PI3K γ.

On to `CC(C)N1CCN(c2cnc3ccc(-c4ccc5oc(N)nc5c4)nc3n2)CC1`, for which the IC50 against PI3K α is below 0.1 µM; against PI3K β it was below 1 µM; at PI3K δ, below 10 µM; at PI3K γ it was below 1 µM.

As for `Nc1nc2cc(-c3cnc4ccc(N5CCOCC5)nc4c3)ccc2o1`, the IC50 on PI3K α is below 10 µM; on PI3K β, above 10 µM; against PI3K δ it was above 10 µM; on PI3K γ it was below 10 µM.

`CN(C)CC(=O)N1CCC(Nc2ncnc3ccc(-c4ccc5oc(N)nc5c4)cc23)CC1`: the IC50 was below 0.1 µM against PI3K α, below 1 µM against PI3K β, below 1 µM on PI3K δ and below 1 µM at PI3K γ.

Regarding `CN1CCN(c2ccc3ncc(-c4ccc5oc(N)nc5c4)cc3n2)CC1`, the IC50 against PI3K α is below 10 µM; at PI3K β, below 10 µM; at PI3K δ, above 10 µM; at PI3K γ, above 10 µM.

With `Nc1nc2cc(-c3ccc4ncc(N5CCN(C(=O)[C@@H]6CCCN6)CC5)nc4c3)ccc2o1`, the IC50 at PI3K α, against PI3K β, against PI3K δ and at PI3K γ was below 0.1 µM in each case.

Turning to `Nc1nc2ccc(-c3ccc4ncn(C5CCOCC5)c(=O)c4c3)cc2o1`, the half-inhibitory concentration (IC50) on PI3K α is below 10 µM; at PI3K β it was above 10 µM; against PI3K δ, above 10 µM; at PI3K γ, above 10 µM.

With `CC1CN(c2cnc3ccc(-c4ccc5oc(N)nc5c4)cc3n2)CCN1` (centres unmarked), the IC50 was below 0.1 µM against PI3K α, below 0.1 µM at PI3K β, below 10 µM against PI3K δ and below 1 µM at PI3K γ.

With `Nc1nc2cc(-c3ccc4ncc(C(=O)N5CCOCC5)cc4c3)ccc2o1`, the IC50 on PI3K α is below 10 µM; against PI3K β it was above 10 µM; on PI3K δ, above 10 µM; on PI3K γ it was above 10 µM.

Take `NCC(=O)N1CCN(c2cnc3ccc(-c4ccc5oc(N)nc5c4)nc3n2)CC1`: the IC50 at PI3K α is below 0.1 µM; on PI3K β, below 10 µM; against PI3K δ, below 10 µM; at PI3K γ it was below 10 µM.

Take `CCn1cnc2ccc(-c3ccc4oc(N)nc4c3)cc2c1=O`: the IC50 at PI3K α is below 0.1 µM; on PI3K β, below 10 µM; against PI3K δ, below 10 µM; on PI3K γ, below 0.1 µM.

As to `Nc1nc2cc(-c3ccc4nc(N5CCOCC5)cnc4n3)ccc2o1`, the IC50 at PI3K α, against PI3K β, at PI3K δ and on PI3K γ was above 10 µM in each case.

For `Nc1nc2cc(-c3ccc4ncc(C(=O)N5CCOCC5)nc4c3)ccc2o1`, the IC50 on PI3K α is below 10 µM; on PI3K β it was above 10 µM; against PI3K δ it was above 10 µM; at PI3K γ, above 10 µM.

With `CCNC(=O)c1cnc2ccc(-c3ccc4oc(N)nc4c3)cn12`, the IC50 at PI3K α is below 0.1 µM; at PI3K β it was below 1 µM; against PI3K δ, below 1 µM; on PI3K γ, below 0.1 µM.

`CC(=O)N1CCN(c2cnc3ccc(-c4ccc5oc(N)nc5c4)cc3n2)CC1`: the IC50 at PI3K α, on PI3K β, on PI3K δ and at PI3K γ was below 0.1 µM throughout.

`Nc1nc2cc(-c3ccc4ncc(N5CCCCC5)nc4c3)ccc2o1`: the IC50 is below 0.1 µM against PI3K α, above 10 µM against PI3K β, above 10 µM against PI3K δ and below 10 µM on PI3K γ.

Take `Nc1nc2cc(-c3ccc4ncc(-c5cccnc5)nc4n3)ccc2o1`: the IC50 on PI3K α is below 1 µM; against PI3K β it was below 10 µM; at PI3K δ, above 10 µM; on PI3K γ, below 1 µM.

Take `Nc1nc2cc(-c3ccc4ncc(C(=O)N5CCNCC5)n4c3)ccc2o1`: the IC50 against PI3K α is below 0.1 µM; against PI3K β, below 10 µM; on PI3K δ it was above 10 µM; at PI3K γ, above 10 µM.

In the case of `COC(=O)N1CCN(c2cnc3ccc(-c4ccc5oc(N)nc5c4)cc3n2)CC1`, the IC50 on PI3K α is below 0.1 µM; against PI3K β, below 1 µM; against PI3K δ, below 10 µM; on PI3K γ, below 0.1 µM.

Regarding `Nc1nc2cc(-c3ccc4ncc(-c5ccncc5)nc4c3)ccc2o1`, the IC50 against PI3K α is below 0.1 µM; at PI3K β, below 10 µM; at PI3K δ, below 1 µM; at PI3K γ, below 0.1 µM.

Consider `Cn1c(N2CCOCC2)nc2cc(-c3ccc4oc(N)nc4c3)ccc2c1=O`, for which the IC50 was below 1 µM against PI3K α, above 10 µM against PI3K β, above 10 µM against PI3K δ and above 10 µM on PI3K γ.

In the case of `Nc1nc2cc(-c3cnc4ccc(N5C6CCC5COC6)nc4c3)ccc2o1`, the IC50 against PI3K α was below 10 µM; against PI3K β, above 10 µM; against PI3K δ, above 10 µM; on PI3K γ it was below 10 µM.

Regarding `Cc1cn(-c2cnc3ccc(-c4ccc5oc(N)nc5c4)cc3n2)cn1`, the IC50 against PI3K α was below 0.1 µM; against PI3K β, above 10 µM; against PI3K δ it was above 10 µM; on PI3K γ, below 1 µM.

On to `CCN1CCN(c2cnc3ccc(-c4ccc5oc(N)nc5c4)cc3n2)CC1`, for which the IC50 was below 0.1 µM against PI3K α, below 0.1 µM at PI3K β, below 10 µM at PI3K δ and below 1 µM on PI3K γ.

Consider `Nc1nc2cc(-c3ccc4ncc(N5CCC(F)(F)CC5)nc4n3)ccc2o1`, for which the IC50 at PI3K α is below 0.1 µM; against PI3K β it was above 10 µM; against PI3K δ, above 10 µM; at PI3K γ, below 0.1 µM.

Turning to `Nc1nc2cc(-c3ccc4ncc(N5CCC(O)CC5)cc4n3)ccc2o1`, the half-inhibitory concentration (IC50) against PI3K α was below 0.1 µM; at PI3K β, below 10 µM; at PI3K δ, below 10 µM; on PI3K γ, below 1 µM.

For the molecule `Nc1nc2cc(-c3ccc4nccc(-c5ccncc5)c4c3)ccc2s1`, the IC50 against PI3K α, at PI3K β, against PI3K δ and at PI3K γ was below 0.1 µM each time.

As to `Nc1nc2cc(-c3ccc4ncc(-c5ccc(N6CCOCC6)nc5)n4c3)ccc2o1` [Compound 51], the IC50 is below 0.1 µM on PI3K α, below 1 µM against PI3K β, below 1 µM against PI3K δ and below 1 µM on PI3K γ.

For `Nc1nc2cc(-c3cn4c(-c5cn[nH]c5)cnc4cn3)ccc2o1`, the IC50 is below 1 µM on PI3K α, below 10 µM against PI3K β, below 10 µM at PI3K δ and below 1 µM at PI3K γ.

In the case of `CC1CN(C2CN(c3cnc4ccc(-c5ccc6oc(N)nc6c5)nc4n3)C2)CCO1` (centres unmarked), the IC50 on PI3K α was below 1 µM; against PI3K β, above 10 µM; against PI3K δ it was above 10 µM; on PI3K γ, below 10 µM.

Turning to `Nc1nc2cc(-c3ccc4ncn(C5CCOCC5)c4c3)ccc2o1` [Compound 48], the IC50 was below 10 µM on PI3K α, above 10 µM on PI3K β, above 10 µM against PI3K δ and above 10 µM at PI3K γ.

For `CN(CCN1CCOCC1)c1cnc2ccc(-c3ccc4oc(N)nc4c3)cc2n1`, the half-maximal inhibitory concentration (IC50) on PI3K α is below 1 µM; against PI3K β, below 10 µM; on PI3K δ, above 10 µM; on PI3K γ, below 10 µM.

Regarding `Nc1nc2cc(-c3ccc4ncc(N5CC(N6CCNCC6)C5)nc4n3)ccc2o1`, the IC50 against PI3K α was below 1 µM; against PI3K β, above 10 µM; on PI3K δ, above 10 µM; on PI3K γ, above 10 µM.

Take `Nc1noc2cc(-c3ccc4nccc(-c5ccncc5)c4c3)ccc12` [Compound 16]: the IC50 is below 0.1 µM at PI3K α, below 10 µM against PI3K β, below 10 µM on PI3K δ and below 1 µM on PI3K γ.

For the molecule `Nc1nc2cc(-c3ccc4ncc(C(=O)N5CCN(CCO)CC5)n4c3)ccc2o1`, the IC50 against PI3K α is below 0.1 µM; against PI3K β it was above 10 µM; against PI3K δ it was above 10 µM; on PI3K γ, below 10 µM.

Regarding `CN1CCCN(c2cnc3ccc(-c4ccc5oc(N)nc5c4)cc3n2)CC1`, the IC50 against PI3K α was below 1 µM; against PI3K β, below 1 µM; against PI3K δ, above 10 µM; at PI3K γ it was below 10 µM.

`Nc1nc2cc(-c3ccc4ncc(N5CC(N6CCN(C7CC7)CC6)C5)cc4n3)ccc2o1`: the IC50 against PI3K α was below 0.1 µM; on PI3K β, below 10 µM; on PI3K δ, below 10 µM; at PI3K γ, below 1 µM.

Take `Nc1nc2cc(-c3ccc4ncc(N5CC(N6CCN(C7CC7)CC6)C5)nc4n3)ccc2o1`: the half-inhibitory concentration (IC50) was below 0.1 µM against PI3K α, below 10 µM against PI3K β, below 10 µM against PI3K δ and below 10 µM at PI3K γ.

Consider `CC(C)(C)N1CCN(C(=O)c2cnc3ccc(-c4ccc5oc(N)nc5c4)cn23)CC1`, for which the concentration for half-maximal inhibition (IC50) on PI3K α is below 0.1 µM; against PI3K β, below 10 µM; at PI3K δ, below 10 µM; on PI3K γ, below 10 µM.

`Nc1nc2cc(-c3c[nH]c4nccc(-c5ccncc5)c34)ccc2o1` [Compound 25]: the IC50 against PI3K α was below 10 µM; on PI3K β, above 10 µM; on PI3K δ it was above 10 µM; on PI3K γ, below 10 µM.

As to `CN1CCN(C(=O)c2cnc3ccc(-c4ccc5sc(N)nc5c4)cn23)CC1`, the IC50 at PI3K α was below 1 µM; on PI3K β it was below 10 µM; at PI3K δ, above 10 µM; on PI3K γ, above 10 µM.

As to `Nc1nc2cc(-c3ccc4ncc(N5CCNCC5)nc4c3)ccc2o1`, the concentration for half-maximal inhibition (IC50) was below 0.1 µM on PI3K α, below 0.1 µM at PI3K β, below 10 µM against PI3K δ and below 1 µM at PI3K γ.

Turning to `CC1(C)CN(C2CN(c3cnc4ccc(-c5ccc6oc(N)nc6c5)nc4n3)C2)CCO1`, the IC50 is below 1 µM on PI3K α, above 10 µM against PI3K β, above 10 µM against PI3K δ and below 10 µM at PI3K γ.

For `CN1CCN(c2cnc3ccc(-c4ccc5oc(N)nc5c4)nc3n2)CC1`, the IC50 is below 1 µM against PI3K α, below 1 µM on PI3K β, below 10 µM against PI3K δ and below 10 µM at PI3K γ.

One may read the IC50 as the concentration at which inhibition is half-maximal.
